Assay results from US11851411B2, “Herbicidal compounds” (SYNGENTA CROP PROTECTION AG, priority 2018, dated 2023).

Legend:
Format in all cases: in vivo
[1] = tested on: Setaria faberi (SETFA); experiment: Glasshouse herbicide test, post-emergence; conditions: POST Application; 500 g/h; evaluated after 13 days
Procedure: (§1) Seeds of a variety of test species are shown in standard soil in pots (Lolium perenne (LOLPE), Amaranthus retoflexus (AMARE), Abutilon theophrasti (ABUTH), Setaria faberi (SETFA), Echinochloa crus-galli (ECHCG), Ipomoea hederacea (IPOHE)). After cultivation for one day (pre-emergence) or after 8 days cultivation (post-emergence) under controlled conditions in a glasshouse (at 24/16° C., day/night; 14 hours light; 65% humidity), the plants are sprayed with an aqueous spray solution derived from the formulation of the technical active ingredient in acetone/water (50:50) solution containing 0.5% Tween 20 (polyoxyethelyene sorbitan monolaurate, CAS RN 9005-64-5). Compounds are applied at 500 g/h. The test plants are then grown in a glasshouse under controlled conditions in a glasshouse (at 24/16° C., day/night; 14 hours light; 65% humidity) and watered twice daily. After 13 days for pre and post-emergence, the test is evaluated for the percentage damage caused to the plant. The biological activities are shown in the following table on a five point scale (5=80-100%; 4=60-79%; 3=40-59%; 2=20-39%; 1=0-19%).

[2] = tested on: Ipomoea hederacea (IPOHE); experiment: Glasshouse herbicide test, post-emergence; conditions: POST Application; 500 g/h; evaluated after 13 days
Procedure: as §1

[3] = tested on: Echinochloa crus-galli (ECHCG); experiment: Glasshouse herbicide test, post-emergence; conditions: POST Application; 500 g/h; evaluated after 13 days
Procedure: as §1

[4] = tested on: Amaranthus retoflexus (AMARE); experiment: Glasshouse herbicide test, post-emergence; conditions: POST Application; 500 g/h; evaluated after 13 days
Procedure: as §1

[5] = tested on: Abutilon theophrasti (ABUTH); experiment: Glasshouse herbicide test, post-emergence; conditions: POST Application; 500 g/h; evaluated after 13 days
Procedure: as §1

[6] = tested on: Setaria faberi (SETFA); experiment: Glasshouse herbicide test, pre-emergence; conditions: PRE Application; 500 g/h; evaluated after 13 days
Procedure: as §1

[7] = tested on: Ipomoea hederacea (IPOHE); experiment: Glasshouse herbicide test, pre-emergence; conditions: PRE Application; 500 g/h; evaluated after 13 days
Procedure: as §1

[8] = tested on: Echinochloa crus-galli (ECHCG); experiment: Glasshouse herbicide test, pre-emergence; conditions: PRE Application; 500 g/h; evaluated after 13 days
Procedure: as §1

[9] = tested on: Amaranthus retoflexus (AMARE); experiment: Glasshouse herbicide test, pre-emergence; conditions: PRE Application; 500 g/h; evaluated after 13 days
Procedure: as §1

[10] = tested on: Abutilon theophrasti (ABUTH); experiment: Glasshouse herbicide test, pre-emergence; conditions: PRE Application; 500 g/h; evaluated after 13 days
Procedure: as §1

Compound	percentage damage caused to the plant, five point scale, SETFA [1]	percentage damage caused to the plant, five point scale, IPOHE [2]	percentage damage caused to the plant, five point scale, ECHCG [3]	percentage damage caused to the plant, five point scale, AMARE [4]	percentage damage caused to the plant, five point scale, ABUTH [5]	percentage damage caused to the plant, five point scale, SETFA [6]	percentage damage caused to the plant, five point scale, IPOHE [7]	percentage damage caused to the plant, five point scale, ECHCG [8]	percentage damage caused to the plant, five point scale, AMARE [9]	percentage damage caused to the plant, five point scale, ABUTH [10]
CON(C(=O)OC(C)(C)C)c1c(C(F)(F)F)ccc(C(=O)Nc2nnnn2C)c1Cl [Compound 1.025]	5 (5=80-100%)	5 (5=80-100%)	5 (5=80-100%)	5 (5=80-100%)	5 (5=80-100%)	5 (5=80-100%)	5 (5=80-100%)	5 (5=80-100%)	5 (5=80-100%)	5 (5=80-100%)
CCCS(=O)(=O)c1ccc(C(=O)Nc2nnnn2C)c(Cl)c1N(C)OC [Compound 1.054]	5 (5=80-100%)	5 (5=80-100%)	5 (5=80-100%)	5 (5=80-100%)	5 (5=80-100%)	5 (5=80-100%)	5 (5=80-100%)	5 (5=80-100%)	5 (5=80-100%)	5 (5=80-100%)
CON(C)c1c(C(F)(F)F)ccc(C(=O)Nc2nnnn2C)c1Cl [Compound 1.037]	5 (5=80-100%)	5 (5=80-100%)	5 (5=80-100%)	5 (5=80-100%)	5 (5=80-100%)	5 (5=80-100%)	5 (5=80-100%)	5 (5=80-100%)	5 (5=80-100%)	5 (5=80-100%)
CCC(=O)N(OC)c1c(C(F)(F)F)ccc(C(=O)Nc2nnnn2C)c1Cl [Compound 1.050]	5 (5=80-100%)	5 (5=80-100%)	5 (5=80-100%)	5 (5=80-100%)	5 (5=80-100%)	5 (5=80-100%)	4 (4=60-79%)	5 (5=80-100%)	5 (5=80-100%)	5 (5=80-100%)
CCCON(C)c1c(S(C)(=O)=O)ccc(C(=O)Nc2nnnn2C)c1Cl [Compound 1.056]	5 (5=80-100%)	5 (5=80-100%)	5 (5=80-100%)	5 (5=80-100%)	5 (5=80-100%)	5 (5=80-100%)	5 (5=80-100%)	5 (5=80-100%)	5 (5=80-100%)	5 (5=80-100%)
CON(C(=O)OC(C)(C)C)c1c(S(C)(=O)=O)ccc(C(=O)Nc2nnnn2C)c1Cl [Compound 1.031]	5 (5=80-100%)	5 (5=80-100%)	5 (5=80-100%)	5 (5=80-100%)	5 (5=80-100%)	5 (5=80-100%)	5 (5=80-100%)	5 (5=80-100%)	5 (5=80-100%)	5 (5=80-100%)
CCn1nnnc1NC(=O)c1ccc(S(C)(=O)=O)c(N(OC)C(C)=O)c1Cl [Compound 1.008]	5 (5=80-100%)	5 (5=80-100%)	5 (5=80-100%)	5 (5=80-100%)	5 (5=80-100%)	5 (5=80-100%)	5 (5=80-100%)	5 (5=80-100%)	5 (5=80-100%)	5 (5=80-100%)
CCn1nnnc1NC(=O)c1ccc(S(C)(=O)=O)c(N(C)OC)c1Cl [Compound 1.044]	5 (5=80-100%)	5 (5=80-100%)	5 (5=80-100%)	5 (5=80-100%)	5 (5=80-100%)	5 (5=80-100%)	5 (5=80-100%)	5 (5=80-100%)	5 (5=80-100%)	5 (5=80-100%)
CON(C(=O)C(C)C)c1c(C(F)(F)F)ccc(C(=O)Nc2nnnn2C)c1Cl [Compound 1.049]	5 (5=80-100%)	5 (5=80-100%)	5 (5=80-100%)	5 (5=80-100%)	5 (5=80-100%)	5 (5=80-100%)	5 (5=80-100%)	5 (5=80-100%)	5 (5=80-100%)	5 (5=80-100%)
CON(C(=O)OC(C)(C)C)c1c(C(F)(F)F)ccc(C(=O)Nc2nnc(C)o2)c1Cl [Compound 2.009, tert-butyl N-[2-chloro-3-[(5-methyl-1,3,4-oxadiazol-2-yl)carbamoyl]-6-(trifluoromethyl)phenyl]-N-methoxy-carbamate]	5 (5=80-100%)	3 (3=40-59%)	5 (5=80-100%)	3 (3=40-59%)	3 (3=40-59%)	2 (2=20-39%)	1 (1=0-19%)	5 (5=80-100%)	5 (5=80-100%)	3 (3=40-59%)
